Numbers after ± are expanded uncertainties.
Settings: Crystal; visual observation

- Normal melting temperature: 284.6 ± 1.4 °C
Compound: F[P-](F)(F)(F)(F)F.F[P-](F)(F)(F)(F)F.c1cc[n+](CCC[n+]2ccccc2)cc1 [1,1'-(1,3-propanediyl)bis-pyridinium hexafluorophosphate]
